Experimental data reported in patent publication US20080312271A1, “AZABENZIMIDAZOLYL COMPOUNDS” (Pfizer Inc., priority 2006, published 2008).
Like-named read-outs stand apart in the source and are kept apart here.

Molecular target: T1, mGluR2 receptor (metabotropic glutamate receptor 2) (Homo sapiens, UniProt Q14416)
T1 construct: expressed in transfected cells
Assay: mGluR2 Potentiator Screen, FLIPR, EC10-EC20 glutamate challenge
Format: cell-based
In short: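 Potentiator assay in HEK cells stably expressing mGluR2 with Gα15, glutamine-depleted overnight, loaded with Fluo-4 plus probenecid and GPT/pyruvate to remove glutamate. Peak fluorescence ratio curve-fitted, with maximum set by on-plate standards.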

T1 sequence (Q14416 19-872, species assumed): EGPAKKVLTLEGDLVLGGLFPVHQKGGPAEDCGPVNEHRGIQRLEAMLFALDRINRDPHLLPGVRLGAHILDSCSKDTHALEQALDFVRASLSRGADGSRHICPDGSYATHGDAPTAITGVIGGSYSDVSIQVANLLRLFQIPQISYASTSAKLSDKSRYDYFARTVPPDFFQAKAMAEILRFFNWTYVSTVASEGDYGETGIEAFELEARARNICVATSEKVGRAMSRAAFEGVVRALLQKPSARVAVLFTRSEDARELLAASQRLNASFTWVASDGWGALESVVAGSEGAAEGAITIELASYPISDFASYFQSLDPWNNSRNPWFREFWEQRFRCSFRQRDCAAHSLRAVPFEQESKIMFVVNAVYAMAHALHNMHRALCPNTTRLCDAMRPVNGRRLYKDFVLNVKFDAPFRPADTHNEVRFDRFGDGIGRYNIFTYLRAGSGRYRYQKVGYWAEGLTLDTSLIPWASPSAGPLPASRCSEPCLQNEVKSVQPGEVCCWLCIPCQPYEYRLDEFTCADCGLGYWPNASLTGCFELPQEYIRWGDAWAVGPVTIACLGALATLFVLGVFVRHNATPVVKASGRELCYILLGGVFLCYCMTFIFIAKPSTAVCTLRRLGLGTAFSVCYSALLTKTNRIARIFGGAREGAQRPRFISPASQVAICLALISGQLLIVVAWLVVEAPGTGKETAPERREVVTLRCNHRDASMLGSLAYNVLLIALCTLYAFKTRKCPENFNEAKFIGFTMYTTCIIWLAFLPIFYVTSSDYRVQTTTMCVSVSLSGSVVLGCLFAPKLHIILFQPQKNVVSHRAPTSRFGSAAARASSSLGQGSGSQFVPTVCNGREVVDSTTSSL

EC50 | EC50 (mGluR2 potentiator screen, FLIPR, EC10-EC20 glutamate challenge) | SMILES
> 0.458 µM | – | Cn1c(CN2CCC(c3c(F)cccc3C(F)(F)F)CC2)nc2cnccc21 [compound 228]
– | > 0.221 µM | C[C@@H]1CN(Cc2nc3cnccc3n2C)CC[C@@H]1c1ccc(F)c(F)c1F (relative stereo) [compound 250]
0.501 µM | – | CCOc1ccc(Cl)cc1C1CCN(Cc2nc3cccnc3n2C)CC1 [compound 42]
